The values below are quoted from earlier work in patent US20100135914A1, “AZEOTROPIC FUMIGANT COMPOSITIONS AND METHODS OF CONTROLLING PESTS” (priority 2008, published 2010).

Data set [1] has as its system eggs of many moths and beetles. The settings on record: exposures of up to three days.
Data set [2] deals with post-embryonic stages of insects. To be noted: in vivo.

Turning to `CI` [Methyl iodide], in the data set on maize weevil (eggs, over 6 hours), the “dosage level toxic to maize weevil eggs” value is 2.16 mg/L. Moreover, the “toxicity to life stages of the maize weevil” value in the data set on maize weevil (relatively short exposure periods and low temperatures) is given as “toxic to all life stages”.

Consider `O=S(=O)(F)F` [Sulfuryl fluoride], for which, in data set [1], the “concentration for complete kill of the egg stage” value is “over 50 mg/L”. For the same molecule, the “toxicity to post-embryonic stages of insects” value in data set [2] is on record as “highly toxic”.
